We go through 6 compounds from US20160355483A1, “COMPOUND BINDING TO PPARG BUT NOT ACTING AS PROMOTER AND PHARMACEUTICAL COMPOSITION FOR TREATING PPARG-RELATED DISEASES CONTAINING SAME AS ACTIVE INGREDIENT” (Hyundai Pharm Co., Ltd., priority 2014, published 2016).

In data set [1] the target is T1, PPARG (peroxisome proliferator activated receptor-gamma), GST-PPARG-LBD (Homo sapiens, UniProt P37231).
T1 construct: 15 μL of 5 nM GST-PPARG-LBD and 5 nM Tb-GST-antibody were added; purchased Invitrogen PV4894
T1 sequence (P37231 238-503 limits assumed): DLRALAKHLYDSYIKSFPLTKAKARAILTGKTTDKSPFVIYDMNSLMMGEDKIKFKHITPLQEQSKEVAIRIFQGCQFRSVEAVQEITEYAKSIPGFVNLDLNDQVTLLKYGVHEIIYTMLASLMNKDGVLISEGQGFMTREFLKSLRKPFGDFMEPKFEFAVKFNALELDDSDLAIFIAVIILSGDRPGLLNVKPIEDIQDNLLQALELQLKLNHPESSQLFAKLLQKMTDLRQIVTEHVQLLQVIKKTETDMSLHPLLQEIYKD
In words: LanthaScreen TR-FRET PPARG Competitive Binding Assay. Particulars: degree of binding activity. The arrangement: key: “+” indicates the degree of the binding activity, and as the number of “+” increases, the binding activity is stronger; ++: “+” indicates the degree of the binding activity, and as the number of “+” increases, the binding activity is stronger; +++: “+” indicates the degree of the binding activity, and as the number of “+” increases, the binding activity is stronger; ++++: “+” indicates the degree of the binding activity, and as the number of “+” increases, the binding activity is stronger. In a few lines: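 GST-tagged human PPARG LBD in a TR-FRET competitive binding kit, 1 h at room temperature. Read-out is the 518/488 nm emission ratio (340 nm excitation); activity = 100% − compound ratio/vehicle ratio, compared with rosiglitazone.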

The test system of data set [2] is CYP isozymes 1A2, 2C9, 2C19, and 2D6. In words: CYP suppression compared with comparative examples (Table 3). The format is in vitro ADME. The conditions noted are these: result in words. Here is the method:
(§1) To evaluate the CYP (cytochrome P450)-suppressing activity of the compounds prepared in the examples of the invention, the following experiment was performed.
(§2) The analysis of CYP1A2, 2C19, and 3A4 suppressing activity was performed by using a BD GENTEST (459100, 459400, and 459500) kit, and the analysis of CYP 2C9- and 2D6-suppressing activity was performed by using an Invitrogen (P2861 and P2862) kit.
(§3) When the Invitrogen kit was used, the compounds of the present invention were diluted in Vivid CYP450 reaction buffer (1×) at the final concentration of 2.5×. The P450 BACULOSOMES sample and Regeneration system (100×) were diluted in Vivid CYP450 reaction buffer (1×) at different proper concentrations. 80 μL of the compound of the invention (2.5×) and […] of the diluted P450 BACULOSOMES sample mixture were mixed in a U-bottom 96-well plate, followed by pre-incubation for 10 minutes. Vivid CYP450 Substrate and NADP+ (100×) were diluted in Vivid CYP450 reaction buffer (1×) at a desired concentration, respectively, according to their corresponding types of CYP450 and substrates. 20 μL of Substrate-NADP+ mix was loaded in the plate when the pre-incubation had been completed, followed by reaction for 1 hour. Upon completion of the reaction, the reaction mixture was transferred in a white plate and fluorescent wavelength was measured with a microplate reader (2C9 excitation 415 nm, emission 460 nm, 2D6 excitation 400 nm, emission 502 nm).
(§4) When the BD GENTEST kit was used, the compounds of the present invention were diluted in acetonitrile at the final concentration of 50×. The NADPH-Cofactor mix was prepared by diluting the Cofactor, G6PDH, and control protein provided by the kit in DW according to the instructed concentration. 4 μL of the compound of the example (50×) was mixed with 96 μL of NADPH-Cofactor mix in a 96-well plate, followed by pre-incubation in a 37° C. incubator for 10 minutes.
(§5) The enzyme/substrate mixture was diluted in the buffer (0.5 M potassium phosphate, pH 7.4) provided by the kit according to the instructed concentration. Each CYP450 enzyme substrate was diluted in DW at a desired concentration respectively according to the corresponding types of CYP450. 100 μL of the enzyme/substrate mixture was loaded in the plate when the pre-incubation had been completed, followed by reaction in a 37° C. incubator for 15 minutes (1A2) and 30 minutes (3A4 and 2C19). Upon completion of the reaction, the mixture was transferred to a white plate, and the fluorescent wavelength was measured with a microplate reader (1A2, 2C19 excitation 410 nm, emission 460 nm; 3A4, excitation 409 nm, emission 530 nm).
(§6) The test results were calculated by the following formula:
(§7) (1−(fluorescence value of the test material/fluorescence value of the vehicle))×100%.

The target in another data set is T2, CYP 3A4 (Homo sapiens, UniProt P08684).
T2 construct: purchased BD GENTEST 459500
T2 sequence (P08684 whole entry): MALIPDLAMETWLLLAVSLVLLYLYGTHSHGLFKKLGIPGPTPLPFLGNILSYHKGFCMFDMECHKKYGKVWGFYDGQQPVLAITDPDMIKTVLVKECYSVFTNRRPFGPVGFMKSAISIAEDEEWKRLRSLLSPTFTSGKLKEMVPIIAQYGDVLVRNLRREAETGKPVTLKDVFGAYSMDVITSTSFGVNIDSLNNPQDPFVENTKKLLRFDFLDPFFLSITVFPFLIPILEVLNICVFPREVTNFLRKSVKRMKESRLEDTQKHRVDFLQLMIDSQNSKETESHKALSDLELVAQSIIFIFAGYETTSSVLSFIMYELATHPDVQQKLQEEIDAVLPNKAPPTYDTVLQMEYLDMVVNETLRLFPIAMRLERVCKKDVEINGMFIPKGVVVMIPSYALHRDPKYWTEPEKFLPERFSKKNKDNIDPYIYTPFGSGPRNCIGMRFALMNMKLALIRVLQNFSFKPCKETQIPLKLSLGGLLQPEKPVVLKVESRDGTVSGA
In words: CYP (cytochrome P450)-suppressing effect, BD GENTEST kit. The format is in vitro ADME. Here is the method: as §1, §2, §4, §5, §6, §7

The next data set has as its target T3, CYP1A2 (Homo sapiens, UniProt P05177).
T3 construct: purchased BD GENTEST 459100
T3 sequence (P05177 1-516): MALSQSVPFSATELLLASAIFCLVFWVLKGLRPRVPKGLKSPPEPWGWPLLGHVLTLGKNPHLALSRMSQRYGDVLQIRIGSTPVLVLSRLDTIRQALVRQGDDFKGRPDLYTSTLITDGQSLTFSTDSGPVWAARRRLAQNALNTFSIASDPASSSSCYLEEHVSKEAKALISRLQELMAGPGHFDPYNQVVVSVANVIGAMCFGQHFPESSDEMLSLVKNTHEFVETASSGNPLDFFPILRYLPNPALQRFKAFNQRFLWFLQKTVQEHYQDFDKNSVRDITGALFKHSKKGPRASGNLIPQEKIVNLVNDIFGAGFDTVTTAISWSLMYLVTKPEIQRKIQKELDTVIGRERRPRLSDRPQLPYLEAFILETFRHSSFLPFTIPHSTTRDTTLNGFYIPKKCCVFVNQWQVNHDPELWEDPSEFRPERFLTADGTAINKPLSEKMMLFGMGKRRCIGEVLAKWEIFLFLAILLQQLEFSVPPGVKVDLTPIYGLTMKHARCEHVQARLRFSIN
Described as above. The class given is in vitro ADME. The method, then: as §1, §2, §4, §5, §6, §7

The next data set concerns the target T4, CYP 2C19 (Homo sapiens, UniProt P33261).
T4 construct: purchased BD GENTEST 459400
The description is as above. The format is in vitro ADME. Here is the method: as §1, §2, §4, §5, §6, §7

Data set [3] concerns the target T5, HERG (Human Ether-a-go-go-Related Gene) channel (Homo sapiens, UniProt Q12809).
T5 construct: expressed in transfected cells; host or cells: HEK293
The data set is described as follows: Evaluation of cardiotoxicity, patch-clamp on HEK293 cells expressing HERG channel. The class given is cell-based. The conditions noted are these: HERG peak tail current.
Experimental: HEK293 cells expressing HERG (Human Ether-a-go-go-Related Gene) channel safely were cultured in MEM (Minimum Essential Medium) supplemented with 10% fetal bovine serum (FBS), 1 mM sodium pyruvate, 0.1 mM non-essential amino acid solution, 100 units/ml penicillin-streptomycin, 100 μg/ml streptomycin sulfate and 100 μg/ml zeocin under the condition of air:CO2=95:5. When the cells were grown to 60-80% confluency, the cells were loaded in the medium supplemented with 0.25% trypsin and 0.02% EDTA (ethylenediaminetertraacetic acid) for 3 minutes. The cells were then washed with a fresh medium and then dispensed on a new plastic culture dish. For the electrophysiological record, the cells were seeded on a glass cover slip of 5 mm in diameter, followed by incubation in a 24-well plate for 5-24 hours. Then, the cells were transferred into the recording chamber.
The current value of all the cells was measured by the conventional patch-clamp technique or Port-a-Patch (Nanion, Germany) semiautomatic technique. The pH of the external bath solution containing 136 mM NaCl, 5.4 mM KCl, 1.8 mM CaCl2, 1 mM MgCl2, 10 mM glucose, and 10 mM HEPES (4-(2-hydroxyethyl)-1-piperazineethanesulfonic acid) was adjusted to 7.4 using NaOH. The pH of the intracellular pipette solution containing 130 mM KCl, 1 mM MgCl2, 10 mM EGTA (ethylene glycol tetraacetic acid), 5 mM Mg-ATP, and mM HEPES was adjusted to 7.2 using KOH.
In the conventional patch-clamp technique, the patch pipette was pulled by a PP-83 pipette puller (Narishige, Tokyo, Japan), so that it had 2-4 MΩ of resistance in the external bath solution. The ionic current was recorded by using EPC7 pulse amplifier (HEKA electronic, Germany). The voltage-clamp amplification was regulated using the pClamp computer program (Axon Instruments, USA), and the obtained data were analyzed. During the recording, the solution above was continually spread on HEK293 cells in the chamber. For the recording, the Port-a-Patch (Nanion, Germany) semiautomatic patch system was used, and the amplifier used herein was EPC10.
The membrane potential was maintained at −80 mV, which was changed to +20 mV for 4 seconds, then changed to −50 mV for 6 seconds and then maintained again at −80 mV. The changes were made every 25 seconds.
To obtain the concentration-reaction curve in the presence of the drug, dose-dependent inhibition was entered into the Hill formula represented by mathematical formula 1 below.
In mathematical formula 1, Idrug indicates the peak tail current in the presence of a drug, Icontrol indicates the maximum peak tail current in the absence of a drug, D indicates the concentration of a drug, h indicates Hill constant, and IC50 indicates the concentration when the half-maximum peak tail current was suppressed.

The next data set deals with T6, CYP 2D6 (Homo sapiens, UniProt P10635).
T6 construct: purchased Invitrogen P2862
T6 sequence (P10635 whole entry): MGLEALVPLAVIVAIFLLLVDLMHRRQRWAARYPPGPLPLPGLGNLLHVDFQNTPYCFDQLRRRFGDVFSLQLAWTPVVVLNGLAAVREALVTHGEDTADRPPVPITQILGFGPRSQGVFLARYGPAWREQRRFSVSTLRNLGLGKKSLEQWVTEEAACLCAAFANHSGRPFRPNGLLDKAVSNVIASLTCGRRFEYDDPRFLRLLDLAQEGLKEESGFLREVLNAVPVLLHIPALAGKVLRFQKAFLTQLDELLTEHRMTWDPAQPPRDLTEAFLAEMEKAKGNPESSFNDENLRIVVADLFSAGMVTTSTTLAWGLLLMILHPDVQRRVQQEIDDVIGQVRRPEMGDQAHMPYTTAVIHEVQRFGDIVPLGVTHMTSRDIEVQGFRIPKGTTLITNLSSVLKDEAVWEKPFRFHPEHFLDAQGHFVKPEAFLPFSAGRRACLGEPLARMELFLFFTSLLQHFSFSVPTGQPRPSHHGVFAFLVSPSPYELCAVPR
In words: CYP (cytochrome P450)-suppressing effect, Invitrogen Vivid kit. The format is in vitro ADME. Here is the method: as §1, §2, §3, §6, §7

Another data set deals with T7, CYP 2C9 (Homo sapiens, UniProt P11712).
T7 construct: purchased Invitrogen P2861
T7 sequence (P11712 whole entry): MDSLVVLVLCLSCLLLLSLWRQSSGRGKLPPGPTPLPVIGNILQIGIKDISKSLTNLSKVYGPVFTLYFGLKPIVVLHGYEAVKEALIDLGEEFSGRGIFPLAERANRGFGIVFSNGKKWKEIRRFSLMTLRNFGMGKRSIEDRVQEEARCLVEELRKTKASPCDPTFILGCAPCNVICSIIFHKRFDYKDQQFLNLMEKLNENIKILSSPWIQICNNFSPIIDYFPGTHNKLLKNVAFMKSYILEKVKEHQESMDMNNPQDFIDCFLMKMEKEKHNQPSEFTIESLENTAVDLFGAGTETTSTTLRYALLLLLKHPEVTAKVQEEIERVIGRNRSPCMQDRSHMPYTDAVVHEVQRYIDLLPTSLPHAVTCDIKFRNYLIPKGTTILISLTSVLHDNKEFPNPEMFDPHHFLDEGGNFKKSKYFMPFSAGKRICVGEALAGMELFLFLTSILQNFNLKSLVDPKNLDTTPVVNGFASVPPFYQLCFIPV
Described as above. The class given is in vitro ADME. Here is the method: as §1, §2, §3, §6, §7

A further data set concerns bone cells. The conditions noted are these: cell culture test; cited from earlier work.

“Also recorded” adds a separate entry of the source.

T5 sequence (Q12809 whole entry): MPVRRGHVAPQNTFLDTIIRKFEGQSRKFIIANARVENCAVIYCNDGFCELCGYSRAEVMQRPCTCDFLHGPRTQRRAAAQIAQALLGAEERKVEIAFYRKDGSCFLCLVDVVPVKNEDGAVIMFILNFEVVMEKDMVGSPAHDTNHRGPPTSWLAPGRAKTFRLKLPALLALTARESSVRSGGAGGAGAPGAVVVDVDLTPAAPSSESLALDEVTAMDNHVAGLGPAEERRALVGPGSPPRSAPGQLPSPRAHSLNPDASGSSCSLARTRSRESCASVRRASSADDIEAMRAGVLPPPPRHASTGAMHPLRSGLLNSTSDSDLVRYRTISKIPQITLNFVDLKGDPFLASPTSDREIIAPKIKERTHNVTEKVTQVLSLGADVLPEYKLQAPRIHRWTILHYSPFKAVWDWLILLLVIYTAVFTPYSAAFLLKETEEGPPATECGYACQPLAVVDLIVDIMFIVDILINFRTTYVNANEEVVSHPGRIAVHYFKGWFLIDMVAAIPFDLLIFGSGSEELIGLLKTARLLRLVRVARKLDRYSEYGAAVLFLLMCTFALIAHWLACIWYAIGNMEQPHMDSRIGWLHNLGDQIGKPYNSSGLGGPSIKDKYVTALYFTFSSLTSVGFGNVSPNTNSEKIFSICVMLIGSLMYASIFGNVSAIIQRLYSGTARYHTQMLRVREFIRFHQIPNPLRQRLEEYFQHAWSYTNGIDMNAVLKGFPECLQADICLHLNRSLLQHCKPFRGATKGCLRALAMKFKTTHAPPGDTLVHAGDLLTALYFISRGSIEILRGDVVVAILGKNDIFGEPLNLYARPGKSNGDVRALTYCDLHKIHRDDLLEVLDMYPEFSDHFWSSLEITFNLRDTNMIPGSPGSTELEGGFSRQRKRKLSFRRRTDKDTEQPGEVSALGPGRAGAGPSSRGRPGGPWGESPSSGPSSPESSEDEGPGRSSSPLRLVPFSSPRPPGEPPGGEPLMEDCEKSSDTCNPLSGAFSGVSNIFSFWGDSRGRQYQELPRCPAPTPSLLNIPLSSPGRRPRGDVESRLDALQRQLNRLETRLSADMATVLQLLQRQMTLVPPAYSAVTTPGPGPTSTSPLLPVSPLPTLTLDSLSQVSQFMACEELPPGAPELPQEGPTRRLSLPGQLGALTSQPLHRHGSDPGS
T4 sequence (P33261 whole entry): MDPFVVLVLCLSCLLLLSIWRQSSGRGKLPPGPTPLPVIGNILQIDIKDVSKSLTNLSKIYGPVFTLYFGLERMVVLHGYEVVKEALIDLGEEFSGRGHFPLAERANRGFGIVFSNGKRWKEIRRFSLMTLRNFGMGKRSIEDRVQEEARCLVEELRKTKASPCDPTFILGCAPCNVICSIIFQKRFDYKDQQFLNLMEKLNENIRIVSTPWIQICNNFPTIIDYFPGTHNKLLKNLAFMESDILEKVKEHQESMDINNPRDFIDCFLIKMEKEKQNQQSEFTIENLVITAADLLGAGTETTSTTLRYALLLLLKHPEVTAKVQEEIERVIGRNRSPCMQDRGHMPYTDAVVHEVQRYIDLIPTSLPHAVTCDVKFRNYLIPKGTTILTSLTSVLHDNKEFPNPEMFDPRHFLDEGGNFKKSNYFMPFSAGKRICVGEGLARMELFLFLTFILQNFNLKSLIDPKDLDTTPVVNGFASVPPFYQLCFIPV

As for `Cc1ccc([C@H](C)NC(=O)c2ccc3c(c2)CCCN3Cc2ccc(-c3ccccc3C(=O)[O-])cc2)cc1F.[Na+]` [Example 56, sodium (S)-4′-((6-((1-(3-fluoro-4-methylphenyl)ethyl)carbamoyl)-3,4-dihydroquinoline-1(2H)-yl)methyl)-[1,1′-biphenyl]-2-carboxylate], the “Binding assay (1 μLM)” value in data set [1] is on record as “++++”. The “suppression of CYP isozymes 1A2, 2C9, 2C19, and 2D6 compared with SR1664 and SR1824” value in data set [2] is “less than the compounds of the comparative examples; also recorded: less strongly than the compounds of the Comparative Examples”. Besides, on CYP 3A4, the “CYP(10 μL, %) 3A4” value is reported as 54.62%. In addition, the “CYP(10 μL, %) 1A2” value at CYP1A2 was 100.73%. The “CYP(10 μL, %) 2C19” value on CYP 2C19 is given as 85.71%. Besides, half-maximal inhibition in [3] (IC50) required 72.6 µM. Further, the “CYP(10 μL, %) 2D6” value at CYP 2D6 was 94.15%. In addition, the “CYP(10 μL, %) 2C9” value at CYP 2C9 is 55.36%.
Regarding `C[C@H](NC(=O)c1ccc2c(c1)CCCN2Cc1cc(-c2ccccc2C(N)=O)ccc1F)c1ccc([N+](=O)[O-])cc1` [Example 139, (S)-1-((2′-carbamoyl-4-fluoro-[1,1′-biphenyl]-3-yl)methyl)-N-(1-(4-nitrophenyl)ethyl)-1,2,3,4-tetrahydroquinoline-6-carboxamide], in [1], the “Binding assay (1 μLM)” value is reported as “+++”. Also, the “suppression of CYP isozymes 1A2, 2C9, 2C19, and 2D6 compared with SR1664 and SR1824” value in data set [2] is given as “less than the compounds of the comparative examples; also recorded: less strongly than the compounds of the Comparative Examples”. Besides, the “CYP(10 μL, %) 3A4” value at CYP 3A4 amounted to 60.95%. Also, on CYP1A2, the “CYP(10 μL, %) 1A2” value came out at 94.00%. In addition, the “CYP(10 μL, %) 2C19” value on CYP 2C19 is on record as 53.50%. Further, the “CYP(10 μL, %) 2D6” value on CYP 2D6 was found to be 80.63%. For the same compound, on CYP 2C9, the “CYP(10 μL, %) 2C9” value amounted to 63.24%.
Take `C[C@H](NC(=O)c1ccc2c(c1)CCCN2Cc1ccccc1-c1ccc(C(=O)O)cc1)c1ccc([N+](=O)[O-])cc1` [Example 155, (S)-2′-((6-((1-(4-nitrophenyl)ethyl)carbamoyl)-3,4-dihydroquinoline-1(2H)-yl)methyl)-[1,1′-biphenyl]-4-carboxylic acid]: in data set [1], the “Binding assay (1 μLM)” value is recorded as “+”. In addition, in data set [3], the IC50 was determined as 73.6 µM.
For `C[C@H](NC(=O)c1ccc2c(c1)CCCN2Cc1ccccc1-c1ccc(C(=O)O)cc1)c1ccc2ccccc2c1` [Example 156, (S)-2′-((6-((1-(naphthalene-2-yl)ethyl)carbamoyl)-3,4-dihydroquinoline-1(2H)-yl)methyl)-[1,1′-biphenyl]-4-carboxylic acid] the same measures were “+” and 55.2 µM.
For `C[C@H](NC(=O)c1ccc2c(c1)CCCN2Cc1ccccc1-c1ccc(C(=O)O)cc1)c1ccc(C#N)cc1` [Example 157, (S)-2′-((6-((1-(4-cyanophenyl)ethyl)carbamoyl)-3,4-dihydroquinoline-1(2H)-yl)methyl)-[1,1′-biphenyl]-4-carboxylic acid], in that order: “++” and 42.7 µM.
As to `Cc1c(C)n(Cc2ccc(-c3ccccc3C(=O)O)cc2)c2ccc(C(=O)N[C@@H](C)c3ccc([N+](=O)[O-])cc3)cc12` [SR1664], the “fat generation in bone cells” value in the data set with bone cells is recorded as “does not induce problems such as fat generation in bone cells”.
